Peptide text beside a SMILES is read from it. * marks the point of attachment. Palmitoyl = CCCCCCCCCCCCCCCC(=O)*
Tested on: LDLR knock-out mice
Test: Biliary lipid secretions, gallbladder cannulation, dyslipidemic LDLR KO mice
Format: in vivo, mouse
Conditions: dyslipidemic LDL KO mice, ip 25 mg/kg, 2 h
Experimental: Wild-type C57B/L6J male mice were purchased from Janvier Labs (Le Genest Saint Isle, France). LDLR knock-out mice (males, C57B/L6J background) were obtained from The Jackson Laboratory (Bar Harbor, Me., USA). Mice were caged in animal rooms under specific pathogen free conditions at the animal facility of Rangueil (Anexplo platform, US006, Toulouse, France) with a light/dark schedule of 12 h/12 h and were fed ad libitum with a normal chow diet (#V1535 R/M-H, Ssniff, Germany). […]
Depending of experiments, 8 weeks old mice were intraperitoneally injected with PBS, the peptide of formula (I), the peptide of formula (II) and SCR. […] Bile flow (expressed in μL/min/100 g of body weight) was determined gravimetrically assuming a density of 1 g/mL for bile. […]
For bile acid analysis, 1 μL of bile samples was diluted with 99 μL of milliQ water then incubated with the work reagent (6 mg NAD, 0.5 M hydrazine hydrate buffer, 0.05 M Na-pyrophosphate) for 4 min. The mix was then incubated with a start reagent (0.03 M Tris-EDTA; 0.3 U/mL 3-alpha-OH steroid dehydrogenase) and measured for 30 min, under excitation of 340/330 nm and emission of 440/420 nm. […] The mix was then incubated with a start reagent (1 M MOPS, pH 8, 50 U/mL Choline oxidase) and measured for 67.5 min, under excitation of 340/330 and emission of 440/40. […]

In the case of `CCCCCCCCCCCCCCCC(=O)NCCCC[C@H](NC(=O)[C@H](CCC(=O)O)NC(=O)[C@H](CCCNC(=N)N)NC(=O)[C@H](CO)NC(=O)[C@H](CCC(N)=O)NC(=O)[C@H](C)NC(=O)[C@H](CCCNC(=N)N)NC(=O)[C@H](Cc1ccccc1)NC(=O)[C@H](Cc1ccc(O)cc1)NC(=O)[C@H](CCCNC(=N)N)NC(=O)[C@H](CCC(=O)O)NC(=O)[C@H](CCC(=O)O)NC(=O)[C@H](CCC(=O)O)NC(=O)[C@H](C)NC(=O)[C@H](CCC(N)=O)NC(=O)[C@H](CCC(=O)O)NC(=O)[C@H](CCCNC(=N)N)NC(=O)[C@H](CCCCN)NC(=O)CNC(=O)[C@H](Cc1ccccc1)NC(=O)[C@H](C)NC(=O)CNC(=O)CNC(=O)[C@H](C)NC(=O)[C@H](CCC(=O)O)NC(=O)[C@H](CCCNC(=N)N)NC(=O)[C@@H](NC(=O)[C@H](CO)NC(=O)CNC(=O)[C@H](C)NC(=O)CNC(=O)[C@H](CCCNC(=N)N)NC(C)=O)[C@@H](C)CC)C(N)=O` [peptide of formula (II), CH3CO-[SEQ ID NO: 1]-K-[palmitoyl]-NH2] (Ac-RGAGSIREAGGAFGKREQAEEERYFRAQSREK(Palmitoyl)-NH2), the “stimulation of biliary flux and biliary lipid secretion” value is reported as “maintained”.
In the case of “Ac-RGAGSIREAGGAFGKREQAEEERYFRAQSRE-NH2 [peptide of formula (I), CH3CO-[SEQ ID NO: 1]-NH2]”, the “stimulation of biliary flux and biliary lipid secretion” value is reported as “maintained”.
